Structures are written as SMILES.

The target of the assay is ADAMTS4 (Homo sapiens (Human), UniProt O75173). The assay can be described thus: Selectivity assay for ADAMTS-7 modulators: ADAMTS4 (FRET substrate). The class given is biochemical. To be noted: ADAMTS4 (R&D 4307-AD) 50 nM, substrate Dabcyl-EEVKAKVQPY-Glu(Edans)-NH2 1 μM, 120 min, 32° C. Summed up:
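Human ADAMTS4 with compound in DMSO, or DMSO control; reaction started by adding FRET substrate in reaction buffer. Fluorescence increase measured at substrate-specific wavelengths. IC50 derived from % inhibition of enzyme activity versus compound concentration.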

Chain of ADAMTS4 (O75173 213-685): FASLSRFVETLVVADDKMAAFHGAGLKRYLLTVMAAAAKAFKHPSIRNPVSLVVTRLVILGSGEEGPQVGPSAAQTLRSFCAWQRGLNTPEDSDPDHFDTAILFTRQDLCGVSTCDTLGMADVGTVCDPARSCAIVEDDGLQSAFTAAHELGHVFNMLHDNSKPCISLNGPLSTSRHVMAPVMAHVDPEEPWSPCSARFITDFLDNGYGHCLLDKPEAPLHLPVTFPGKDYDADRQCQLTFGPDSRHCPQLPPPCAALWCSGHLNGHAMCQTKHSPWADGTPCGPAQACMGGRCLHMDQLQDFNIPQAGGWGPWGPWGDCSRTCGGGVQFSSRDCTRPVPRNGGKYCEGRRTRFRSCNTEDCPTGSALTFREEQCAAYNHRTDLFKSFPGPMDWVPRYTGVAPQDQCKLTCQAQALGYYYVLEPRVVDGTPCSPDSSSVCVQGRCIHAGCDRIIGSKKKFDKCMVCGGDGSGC

As usually defined, the IC50 is the concentration that gives 50% inhibition. Higher therefore signals weaker potency. The compound `Cc1ccc(C(=O)NCC2(C(C)C)NC(=O)NC2=O)c(-c2ccc(C(F)(F)F)cc2)c1` (stereo not drawn) [Example 203, Ent-N-[(4-Isopropyl-2,5-Dioxoimidazolidin-4-Yl)Methyl]-5-Methyl-4′-(Trifluoromethyl)[Biphenyl]-2-Carboxamide] showed an IC50 of 46 µM.

The values are drawn from patent publication US12398120B2, “Substituted hydantoinamides as ADAMTS7 antagonists” (BAYER AKTIENGESELLSCHAFT, priority 2019, dated 2025).
